Data as given in US20240391936A1, “TETRAHYDROTHIENO PYRIDINE DERIVATIVES AS DDRS INHIBITORS” (CHIESI FARMACEUTICI S.P.A., priority 2021, published 2024).

What was measured:
[1] = target: T1, DDR2 (Homo sapiens, UniProt Q16832); assay: DDR2 cell based assay (phospho-ELISA in HEK293T-DDR2 recombinant cells); set-up: expressed in transfected cells; host or cells: HEK293T-DDR2 recombinant cells; settings: bovine Type II Collagen 50 μg/ml
T1 sequence (Q16832 22-855): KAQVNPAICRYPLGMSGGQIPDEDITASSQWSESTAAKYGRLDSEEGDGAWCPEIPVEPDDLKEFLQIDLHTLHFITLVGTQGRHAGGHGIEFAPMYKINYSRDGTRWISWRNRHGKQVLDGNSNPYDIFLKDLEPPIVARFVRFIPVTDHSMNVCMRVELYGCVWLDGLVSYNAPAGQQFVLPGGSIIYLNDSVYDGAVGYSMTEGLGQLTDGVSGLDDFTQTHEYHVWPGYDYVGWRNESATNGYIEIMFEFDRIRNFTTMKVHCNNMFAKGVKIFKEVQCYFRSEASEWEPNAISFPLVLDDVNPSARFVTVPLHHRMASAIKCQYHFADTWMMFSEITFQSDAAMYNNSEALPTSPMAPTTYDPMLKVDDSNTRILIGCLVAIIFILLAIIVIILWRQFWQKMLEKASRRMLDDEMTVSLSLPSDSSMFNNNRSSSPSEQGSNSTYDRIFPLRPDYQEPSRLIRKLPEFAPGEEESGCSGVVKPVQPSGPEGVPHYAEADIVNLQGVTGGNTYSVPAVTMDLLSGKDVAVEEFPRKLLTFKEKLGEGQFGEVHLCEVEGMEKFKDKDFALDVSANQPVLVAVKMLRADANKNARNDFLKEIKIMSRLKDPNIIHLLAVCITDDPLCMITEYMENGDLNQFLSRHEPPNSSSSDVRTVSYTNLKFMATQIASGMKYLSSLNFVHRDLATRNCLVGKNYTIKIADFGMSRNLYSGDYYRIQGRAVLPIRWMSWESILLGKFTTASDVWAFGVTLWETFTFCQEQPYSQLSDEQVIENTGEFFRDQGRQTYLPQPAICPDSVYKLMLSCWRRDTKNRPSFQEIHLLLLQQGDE
Outline: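 HEK293T-DDR2 cells, serum-starved 3 h, treated with compounds 30 min before 3 h stimulation with bovine type II collagen at 50 μg/ml. Lysate phospho-DDR2 measured by ELISA, normalized to maximal-inhibition and collagen II (20 μg/ml) controls; IC50 from variable-slope sigmoidal fit.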

[2] = target: T1, DDR2; assay: DDR2 binding assay (LanthaScreen Europium Kinase Binding assay); set-up: purchased Life Technologies; settings: binding assay, 5 nM DDR2, 10 nM Kinase Tracer 178; Ki from IC50 by Cheng-Prusoff; read-out: Ki DDR2
Outline: (§1)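 TR-FRET tracer-displacement format: 665/615 nm emission ratio (340 nm excitation) gave IC50 by 4-parameter fit, then Ki via Cheng-Prusoff. Each kinase at 5 nM with 2 nM Eu-anti-GST antibody and Tracer 178 (DDR1 20 nM, DDR2 10 nM), 1 h, room temperature, HEPES pH 7.5 buffer.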

[3] = target: T2, DDR1 (Homo sapiens, UniProt Q08345); assay: DDR1 binding assay (LanthaScreen Europium Kinase Binding assay); set-up: purchased Carna Biosciences; settings: binding assay, 5 nM DDR1, 20 nM Kinase Tracer 178; Ki from IC50 by Cheng-Prusoff; read-out: Ki DDR1
Outline: as §1

[4] = target: T2, DDR1; assay: DDR1 cell based assay (PathHunter U2OS DDR1 assay); set-up: host or cells: U2OS-DDR1 (PathHunter); settings: U2OS-DDR1 cells, bovine Type II Collagen 20 μg/ml
Outline: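 Receptor activation measured by enzyme-fragment complementation luminescence in engineered U2OS cells. Compound added 30 min before overnight challenge with 20 μg/ml bovine collagen II; data scaled between vehicle and collagen-stimulated controls, IC50 derived by four-parameter variable-slope fitting.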

T2 sequence (Q08345 19-913): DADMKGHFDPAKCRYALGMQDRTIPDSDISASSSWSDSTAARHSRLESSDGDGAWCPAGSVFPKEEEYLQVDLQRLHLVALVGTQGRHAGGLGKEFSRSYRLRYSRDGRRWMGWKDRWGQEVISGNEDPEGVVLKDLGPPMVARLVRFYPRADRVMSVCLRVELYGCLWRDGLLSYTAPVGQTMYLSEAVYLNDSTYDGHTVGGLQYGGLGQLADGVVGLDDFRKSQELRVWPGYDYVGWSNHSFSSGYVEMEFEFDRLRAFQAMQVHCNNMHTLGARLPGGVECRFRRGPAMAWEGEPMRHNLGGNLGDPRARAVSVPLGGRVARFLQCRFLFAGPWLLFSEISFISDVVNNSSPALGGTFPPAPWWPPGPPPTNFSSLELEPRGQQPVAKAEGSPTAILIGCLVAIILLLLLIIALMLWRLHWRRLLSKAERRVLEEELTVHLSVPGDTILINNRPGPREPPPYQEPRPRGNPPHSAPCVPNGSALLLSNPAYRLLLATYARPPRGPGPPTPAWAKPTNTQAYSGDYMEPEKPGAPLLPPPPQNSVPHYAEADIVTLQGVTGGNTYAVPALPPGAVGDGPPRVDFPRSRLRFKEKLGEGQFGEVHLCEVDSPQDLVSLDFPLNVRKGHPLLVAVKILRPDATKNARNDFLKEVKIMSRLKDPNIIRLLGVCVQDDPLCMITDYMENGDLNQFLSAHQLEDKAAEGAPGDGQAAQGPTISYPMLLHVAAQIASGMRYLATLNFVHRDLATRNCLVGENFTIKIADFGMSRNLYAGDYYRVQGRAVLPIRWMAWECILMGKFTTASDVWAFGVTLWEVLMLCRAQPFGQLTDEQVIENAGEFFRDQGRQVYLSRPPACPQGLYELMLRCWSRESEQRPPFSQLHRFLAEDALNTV

Structure (SMILES) | IC50 [1] [nM] | Ki [2] [nM] | Ki [3] [nM] | IC50 [4] [nM]
Cc1cn(-c2cc(NC(=O)c3csc4c3CCN(C(=O)c3cnc5ccccn35)[C@@H]4C)cc(C(F)(F)F)c2)cn1 [Example 101, (R)-6-(imidazo[1,2-a]pyridine-3-carbonyl)-7-methyl-N-(3-(4-methyl-1H-imidazol-1-yl)-5-(trifluoromethyl)phenyl)-4,5,6,7-tetrahydrothieno[2,3-c]pyridine-3-carboxamide] | < 25 | < 25 | < 25 | < 25
CN1CCN(c2ccc3ncc(C(=O)N4CCc5c(C(=O)Nc6cncc(C(F)(F)F)c6)csc5C4)n3c2)CC1 [Example 165, 6-(6-(4-methylpiperazin-1-yl)imidazo[1,2-a]pyridine-3-carbonyl)-N-(5-(trifluoromethyl)pyridin-3-yl)-4,5,6,7-tetrahydrothieno[2,3-c]pyridine-3-carboxamide] | 25 to 50 | < 25 | < 25 | < 25
CN(C)[C@@H]1CCN(Cc2cc(NC(=O)c3csc4c3CCN(Cc3cnc5[nH]ncc5c3)C4)cc(C(F)(F)F)c2)C1 [Example 158, (R)-6-((1H-pyrazolo[3,4-b]pyridin-5-yl)methyl)-N-(3-((3-(dimethylamino)pyrrolidin-1-yl)methyl)-5-(trifluoromethyl)phenyl)-4,5,6,7-tetrahydrothieno[2,3-c]pyridine-3-carboxamide] | 25 to 50 | < 25 | < 25 | < 25
CN1CCN(c2ccc3ncc(C(=O)N4CCc5c(C(=O)Nc6cccc(C(F)(F)F)c6)csc5C4)n3c2)CC1 [Example 136, 6-(6-(4-methylpiperazin-1-yl)imidazo[1,2-a]pyridine-3-carbonyl)-N-(3-(trifluoromethyl)phenyl)-4,5,6,7-tetrahydrothieno[2,3-c]pyridine-3-carboxamide] | < 25 | < 25 | < 25 | < 25
Cc1cn(-c2cc(NC(=O)c3csc4c3CCN(C(=O)c3cnc5ccccn35)C4C)cc(C(F)(F)F)c2)cn1 (centres unmarked) [Example 98, 6-(imidazo[1,2-a]pyridine-3-carbonyl)-7-methyl-N-(3-(4-methyl-1H-imidazol-1-yl)-5-(trifluoromethyl)phenyl)-4,5,6,7-tetrahydrothieno[2,3-c]pyridine-3-carboxamide] | < 25 | < 25 | < 25 | < 25
